Data as given in PubChem BioAssay (NCI).
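Cells were grown in 96-well plates and exposed to each compound for 48 hours at five concentrations; endpoints were interpolated linearly between bracketing concentrations, or set to the highest concentration if not reached. At the TGI there is no net growth.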

Experiments:
Experiment in all cases: NCI tumour cell line growth inhibition, 48 h
HCC-2998 colon = tested on: HCC-2998 colon
MALME-3M melanoma = tested on: MALME-3M melanoma
KM12 colon = tested on: KM12 colon
IGROV1 ovarian = tested on: IGROV1 ovarian
OVCAR-3 ovarian = tested on: OVCAR-3 ovarian
DMS 114 small cell lung = tested on: DMS 114 small cell lung
LXFL 529 NSCLC = tested on: LXFL 529 NSCLC
PC-3 prostate = tested on: PC-3 prostate
DLD-1 colon = tested on: DLD-1 colon
CCRF-CEM leukemia = tested on: CCRF-CEM leukemia
BT-549 breast = tested on: BT-549 breast
XF 498 CNS = tested on: XF 498 CNS
ACHN renal = tested on: ACHN renal
TK-10 renal = tested on: TK-10 renal
RPMI-8226 leukemia = tested on: RPMI-8226 leukemia
OVCAR-5 ovarian = tested on: OVCAR-5 ovarian
SW-620 colon = tested on: SW-620 colon
K-562 leukemia = tested on: K-562 leukemia
OVCAR-4 ovarian = tested on: OVCAR-4 ovarian
UACC-257 melanoma = tested on: UACC-257 melanoma
NCI-H226 lung = tested on: NCI-H226 lung
MDA-N = tested on: MDA-N
SNB-19 CNS = tested on: SNB-19 CNS
OVCAR-8 ovarian = tested on: OVCAR-8 ovarian
A549 NSCLC = tested on: A549 NSCLC
COLO 205 colon = tested on: COLO 205 colon
CAKI-1 renal = tested on: CAKI-1 renal
SF-539 CNS = tested on: SF-539 CNS
HS 578T breast = tested on: HS 578T breast
M14 melanoma = tested on: M14 melanoma
MCF7 breast = tested on: MCF7 breast
HCT-15 colon = tested on: HCT-15 colon
SN12C renal = tested on: SN12C renal
SF-295 CNS = tested on: SF-295 CNS
786-0 renal = tested on: 786-0 renal
NCI-H522 lung = tested on: NCI-H522 lung
SK-MEL-2 melanoma = tested on: SK-MEL-2 melanoma
LOX IMVI melanoma = tested on: LOX IMVI melanoma
UO-31 renal = tested on: UO-31 renal
DMS 273 small cell lung = tested on: DMS 273 small cell lung
RXF 393 renal = tested on: RXF 393 renal
A498 renal = tested on: A498 renal
NCI-H460 lung = tested on: NCI-H460 lung
HCT-116 colon = tested on: HCT-116 colon
SK-MEL-28 melanoma = tested on: SK-MEL-28 melanoma
NCI-H23 lung = tested on: NCI-H23 lung
T-47D breast = tested on: T-47D breast
SK-OV-3 ovarian = tested on: SK-OV-3 ovarian
HOP-62 NSCLC = tested on: HOP-62 NSCLC
M19-MEL melanoma = tested on: M19-MEL melanoma
MOLT-4 leukemia = tested on: MOLT-4 leukemia
MDA-MB-231 breast = tested on: MDA-MB-231 breast
MDA-MB-435 = tested on: MDA-MB-435
EKVX NSCLC = tested on: EKVX NSCLC
U251 CNS = tested on: U251 CNS
HT29 colon = tested on: HT29 colon
HOP-92 NSCLC = tested on: HOP-92 NSCLC
RXF-631 renal = tested on: RXF-631 renal
SNB-75 CNS = tested on: SNB-75 CNS
SK-MEL-5 melanoma = tested on: SK-MEL-5 melanoma
SNB-78 CNS = tested on: SNB-78 CNS
SF-268 CNS = tested on: SF-268 CNS
UACC-62 melanoma = tested on: UACC-62 melanoma
DU-145 prostate = tested on: DU-145 prostate
HOP-18 NSCLC = tested on: HOP-18 NSCLC
HL-60(TB) leukemia = tested on: HL-60(TB) leukemia
KM20L2 colon = tested on: KM20L2 colon
SR leukemia = tested on: SR leukemia

C=C1C(=O)OC2/C=C(\C)C3OC3/C=C(/C(=O)OC)C(OC(C)=O)C(OC(=O)C(C)(O)C(C)OC(C)=O)C12 (stereo unspecified)
TGI (HCC-2998 colon): 14.4 µM
TGI (MALME-3M melanoma): 7.88 µM
TGI (KM12 colon): 6.36 µM
TGI (IGROV1 ovarian): 5.71 µM
TGI (OVCAR-3 ovarian): 13.9 µM
TGI (DMS 114 small cell lung): 4.01 µM
TGI (LXFL 529 NSCLC): 2.36 µM
TGI (PC-3 prostate): 14.8 µM
TGI (DLD-1 colon): 7.52 µM
TGI (CCRF-CEM leukemia): 3.04 µM
TGI (BT-549 breast): 2.37 µM
TGI (XF 498 CNS): 5.6 µM
TGI (ACHN renal): 18.2 µM
TGI (TK-10 renal): 4.21 µM
TGI (RPMI-8226 leukemia): 7.9 µM
TGI (OVCAR-5 ovarian): 10.7 µM
TGI (SW-620 colon): 2.25 µM
TGI (K-562 leukemia): 17.1 µM
TGI (OVCAR-4 ovarian): 12.6 µM
TGI (UACC-257 melanoma): 2.34 µM
TGI (NCI-H226 lung): 15.7 µM
TGI (MDA-N): 69.1 µM
TGI (SNB-19 CNS): 29.1 µM
TGI (OVCAR-8 ovarian): 6.92 µM
TGI (A549 NSCLC): 35.5 µM
TGI (COLO 205 colon): 8.97 µM
TGI (CAKI-1 renal): 16.3 µM
TGI (SF-539 CNS): 5.43 µM
TGI (HS 578T breast): 29.7 µM
TGI (M14 melanoma): 8.05 µM
TGI (MCF7 breast): 2.67 µM
TGI (HCT-15 colon): > 34.1 µM
TGI (SN12C renal): 7.02 µM
TGI (SF-295 CNS): 21.5 µM
TGI (786-0 renal): 8.27 µM
TGI (NCI-H522 lung): 0.871 µM
TGI (SK-MEL-2 melanoma): 20.2 µM
TGI (LOX IMVI melanoma): 3.61 µM
TGI (UO-31 renal): 15 µM
TGI (DMS 273 small cell lung): 10.6 µM
TGI (RXF 393 renal): 1.35 µM
TGI (A498 renal): 11.5 µM
TGI (NCI-H460 lung): 13.3 µM
TGI (HCT-116 colon): 6.14 µM
TGI (SK-MEL-28 melanoma): 6.14 µM
TGI (NCI-H23 lung): 11.2 µM
TGI (T-47D breast): 36.8 µM
TGI (SK-OV-3 ovarian): 33 µM
TGI (HOP-62 NSCLC): 37.5 µM
TGI (M19-MEL melanoma): 22.4 µM
TGI (MOLT-4 leukemia): 3.68 µM
TGI (MDA-MB-231 breast): 22.6 µM
TGI (MDA-MB-435): 4.84 µM
TGI (EKVX NSCLC): 42.9 µM
TGI (U251 CNS): 10.3 µM
TGI (HT29 colon): 2.88 µM
TGI (HOP-92 NSCLC): 4.1 µM
TGI (RXF-631 renal): 19.6 µM
TGI (SNB-75 CNS): 10.6 µM
TGI (SK-MEL-5 melanoma): 7.09 µM
TGI (SNB-78 CNS): 12.4 µM
TGI (SF-268 CNS): 34.1 µM
TGI (UACC-62 melanoma): 4.55 µM

CC1OC(OC2CC(O)(C(=O)CO)Cc3c(O)c4c(c(O)c32)C(=O)c2ccccc2C4=O)CC(N)C1O (stereo unspecified)
TGI (HCC-2998 colon): 0.084 µM
TGI (MALME-3M melanoma): 0.0864 µM
TGI (KM12 colon): 4.59 µM
TGI (IGROV1 ovarian): 3.52 µM
TGI (OVCAR-3 ovarian): 1.32 µM
TGI (DU-145 prostate): 0.0836 µM
TGI (DMS 114 small cell lung): 0.0412 µM
TGI (LXFL 529 NSCLC): 0.347 µM
TGI (PC-3 prostate): 0.954 µM
TGI (BT-549 breast): 4.03 µM
TGI (XF 498 CNS): 0.588 µM
TGI (ACHN renal): 0.134 µM
TGI (RPMI-8226 leukemia): 0.235 µM
TGI (OVCAR-5 ovarian): 0.721 µM
TGI (SW-620 colon): 2.48 µM
TGI (K-562 leukemia): 9.2 µM
TGI (OVCAR-4 ovarian): 3.15 µM
TGI (UACC-257 melanoma): 0.326 µM
TGI (NCI-H226 lung): < 0.0228 µM
TGI (MDA-N): 0.613 µM
TGI (SNB-19 CNS): 0.239 µM
TGI (OVCAR-8 ovarian): 12.4 µM
TGI (COLO 205 colon): 0.139 µM
TGI (HOP-18 NSCLC): 0.0358 µM
TGI (CAKI-1 renal): 0.088 µM
TGI (SF-539 CNS): 0.121 µM
TGI (HS 578T breast): 0.113 µM
TGI (M14 melanoma): 0.229 µM
TGI (HCT-15 colon): 1.99 µM
TGI (SN12C renal): 0.887 µM
TGI (SF-295 CNS): 0.0818 µM
TGI (NCI-H522 lung): 0.1 µM
TGI (LOX IMVI melanoma): 0.029 µM
TGI (UO-31 renal): 0.267 µM
TGI (DMS 273 small cell lung): < 0.0278 µM
TGI (RXF 393 renal): 0.152 µM
TGI (A498 renal): 0.0526 µM
TGI (NCI-H460 lung): 0.0366 µM
TGI (HL-60(TB) leukemia): < 0.0173 µM
TGI (HCT-116 colon): 0.407 µM
TGI (SK-MEL-28 melanoma): 0.368 µM
TGI (NCI-H23 lung): 0.203 µM
TGI (T-47D breast): 0.134 µM
TGI (SK-OV-3 ovarian): 0.142 µM
TGI (HOP-62 NSCLC): 0.0782 µM
TGI (M19-MEL melanoma): 0.15 µM
TGI (KM20L2 colon): 0.779 µM
TGI (MOLT-4 leukemia): < 0.0819 µM
TGI (MDA-MB-231 breast): 7.4 µM
TGI (MDA-MB-435): 1.49 µM
TGI (EKVX NSCLC): 1.82 µM
TGI (U251 CNS): 0.188 µM
TGI (HT29 colon): 0.493 µM
TGI (HOP-92 NSCLC): 1.04 µM
TGI (RXF-631 renal): 0.213 µM
TGI (SNB-75 CNS): 0.107 µM
TGI (SK-MEL-5 melanoma): 0.0523 µM
TGI (SNB-78 CNS): 0.898 µM
TGI (SF-268 CNS): 0.549 µM
TGI (UACC-62 melanoma): 0.109 µM

BrC12c3ccccc3Sc3ccccc3C1(Br)c1ccccc12 (stereo unspecified)
TGI (HCC-2998 colon): > 100 µM
TGI (MALME-3M melanoma): > 100 µM
TGI (KM12 colon): 38.9 µM
TGI (IGROV1 ovarian): > 100 µM
TGI (DMS 114 small cell lung): 64.8 µM
TGI (LXFL 529 NSCLC): 59.7 µM
TGI (DLD-1 colon): > 100 µM
TGI (CCRF-CEM leukemia): 50.1 µM
TGI (ACHN renal): > 100 µM
TGI (TK-10 renal): 99.6 µM
TGI (RPMI-8226 leukemia): 36.4 µM
TGI (OVCAR-5 ovarian): 86.2 µM
TGI (SW-620 colon): > 100 µM
TGI (K-562 leukemia): > 100 µM
TGI (OVCAR-4 ovarian): > 100 µM
TGI (UACC-257 melanoma): 86.3 µM
TGI (NCI-H226 lung): 38.7 µM
TGI (SNB-19 CNS): > 100 µM
TGI (OVCAR-8 ovarian): > 100 µM
TGI (A549 NSCLC): > 100 µM
TGI (COLO 205 colon): 76.3 µM
TGI (HOP-18 NSCLC): > 100 µM
TGI (CAKI-1 renal): 72.9 µM
TGI (SF-539 CNS): 34.6 µM
TGI (M14 melanoma): 28.8 µM
TGI (HCT-15 colon): 46.3 µM
TGI (SN12C renal): 76.6 µM
TGI (SF-295 CNS): 61.4 µM
TGI (786-0 renal): > 100 µM
TGI (NCI-H522 lung): 44.6 µM
TGI (SK-MEL-2 melanoma): 34.5 µM
TGI (LOX IMVI melanoma): 29.7 µM
TGI (UO-31 renal): > 100 µM
TGI (DMS 273 small cell lung): 87.2 µM
TGI (RXF 393 renal): > 100 µM
TGI (A498 renal): 70.7 µM
TGI (NCI-H460 lung): > 100 µM
TGI (HL-60(TB) leukemia): 29.1 µM
TGI (HCT-116 colon): 52.1 µM
TGI (SK-OV-3 ovarian): > 100 µM
TGI (HOP-62 NSCLC): 42.9 µM
TGI (M19-MEL melanoma): > 100 µM
TGI (SR leukemia): 41.4 µM
TGI (KM20L2 colon): 41.6 µM
TGI (MOLT-4 leukemia): 35.8 µM
TGI (U251 CNS): 33.7 µM
TGI (HT29 colon): > 100 µM
TGI (HOP-92 NSCLC): 60.5 µM
TGI (RXF-631 renal): 98.8 µM
TGI (SNB-75 CNS): 95.8 µM
TGI (SK-MEL-5 melanoma): 30.8 µM
TGI (SF-268 CNS): > 100 µM
TGI (UACC-62 melanoma): 46.6 µM
